Assay results taken from ChEMBL document CHEMBL1128055, “Selective cytotoxic cyclolignans” (Bioorg Med Chem Lett, 1995).

Columns and labels:
CV-1 = assay: Antineoplastic activity against CV-1 (monkey kidney fibroblast) cell line.; type: functional, cell-based, Cercopithecidae; conditions: Chlorocebus aethiops
HT-29 = assay: Antineoplastic activity against HT-29 (human colon carcinoma) cell line.; type: functional, cell-based
SK-MEL-28 = assay: Antineoplastic activity against MEL-28 human melanoma carcinoma cell cultures; type: functional, cell-based
P388 = assay: Antineoplastic activity against P-388 (murine leukemia) cell line.; type: functional, cell-based; conditions: Mus musculus
A549 = assay: Antineoplastic activity against A-549 (human lung carcinoma) cell line.; type: functional, cell-based
[1] = Selectivity index was evaluated by antineoplastic activity against HT-29 cells and compared with cytotoxicity against normal cells; type: functional

SMILES	IC50 (HT-29)	IC50 (SK-MEL-28)	IC50 (P388)	IC50 (A549)	IC50 (CV-1)	Selectivity index [1]
COC(=O)[C@@H]1C(/C=N/O)=Cc2cc3c(cc2[C@H]1c1cc(OC)c(OC)c(OC)c1)OCO3	2270 nM	2270 nM	2270 nM	2270 nM	2270 nM	
COC(=O)[C@@H]1C(/C=N/N)=Cc2cc3c(cc2[C@H]1c1cc(OC)c(OC)c(OC)c1)OCO3	570 nM	1140 nM	570 nM	570 nM	2270 nM	
CO/N=C/[C@@H]1Cc2cc3c(cc2[C@@H](c2cc(OC)c(OC)c(OC)c2)[C@@H]1C(=O)OC)OCO3	> 21900 nM	> 21900 nM	10900 nM	21900 nM	> 21900 nM	
CO/N=C/C1=Cc2cc3c(cc2[C@@H](c2cc(OC)c(OC)c(OC)c2)[C@@H]1C(=O)OC)OCO3	220 nM	220 nM	220 nM	220 nM	220 nM	
COc1cc([C@@H]2c3cc4c(cc3[C@H](O)[C@H]3COC(=O)[C@H]23)OCO4)cc(OC)c1OC [PODOFILOX]	29 nM		12 nM	12 nM	29 nM	
COC(=O)[C@@H]1C(C=O)=Cc2cc3c(cc2[C@H]1c1cc(OC)c(OC)c(OC)c1)OCO3 [PODOPHYLLIC ALDEHYDE]	12 nM	230 nM	230 nM	120 nM	230 nM	20
COc1cc([C@@H]2c3cc4c(cc3C[C@H]3COC(=O)[C@@H]32)OCO4)cc(OC)c1OC [DESOXYPODOPHYLLOTOXIN]	6 nM		10 nM	< 6 nM	6 nM	
COc1cc([C@@H]2c3cc4c(cc3C(=O)[C@H]3COC(=O)[C@@H]23)OCO4)cc(OC)c1OC [PICROPODOPHYLLONE]	12000 nM		12000 nM	12000 nM	48000 nM	
COc1cc([C@@H]2c3cc4c(cc3C=C(C=O)[C@H]2CO)OCO4)cc(OC)c1OC	250 nM	250 nM	250 nM	250 nM	630 nM	
COC(=O)[C@@H]1C(/C=N/Nc2ccccc2)=Cc2cc3c(cc2[C@H]1c1cc(OC)c(OC)c(OC)c1)OCO3	39 nM	4840 nM	1940 nM	970 nM	1940 nM	50

Now from value to compound, other results behind:

IC50 (HT-29)	IC50 (SK-MEL-28)	IC50 (P388)	IC50 (A549)	SMILES	IC50 (CV-1)	Selectivity index [1]
2340 nM	2340 nM	2340 nM	2340 nM	COC(=O)[C@H]1[C@H](c2cc(OC)c(OC)c(OC)c2)c2cc3c(cc2C[C@H]1C=O)OCO3	2340 nM	
5630 nM	5630 nM	5630 nM	5630 nM	COC(=O)[C@H]1[C@H](c2cc(OC)c(OC)c(OC)c2)c2cc3c(cc2C(=O)[C@H]1CO)OCO3	5630 nM	
1100 nM		1100 nM	1100 nM	COC(=O)[C@H]1[C@H](c2cc(OC)c(OC)c(OC)c2)c2cc3c(cc2[C@H](OC(C)=O)[C@H]1COC(C)=O)OCO3	1100 nM	
120 nM	58 nM	58 nM	58 nM	COC(=O)[C@@H]1[C@H](CO)Cc2cc3c(cc2[C@H]1c1cc(OC)c(OC)c(OC)c1)OCO3	58 nM	
48 nM	480 nM	480 nM	190 nM	COC(=O)[C@@H]1C(/C=N/NCC(F)(F)F)=Cc2cc3c(cc2[C@H]1c1cc(OC)c(OC)c(OC)c1)OCO3	480 nM	10
2050 nM	510 nM	1020 nM	1020 nM	COc1cc([C@@H]2c3cc4c(cc3C=C(/C=N/Nc3ccccc3)[C@H]2CO)OCO4)cc(OC)c1OC	1020 nM	
450 nM		220 nM	220 nM	COC(=O)[C@H]1[C@H](c2cc(OC)c(OC)c(OC)c2)c2cc3c(cc2[C@H](O)[C@H]1CO)OCO3	450 nM	
210 nM	210 nM	210 nM	210 nM	COC(=O)[C@@H]1[C@H](COC(C)=O)Cc2cc3c(cc2[C@H]1c1cc(OC)c(OC)c(OC)c1)OCO3	210 nM	
